Results as given in patent publication US20240360126A1, “PYRAZOLO[3,4-B]PYRIDINE COMPOUNDS FOR THE TREATMENT OF AUTOIMMUNE DISEASE” (Hoffmann-La Roche Inc., priority 2021, published 2024).

Biological target: T1, hERG K+ channel (Homo sapiens, UniProt Q12809)
T1 construct: expressed in transfected cells; host or cells: CHO (Chinese hamster ovary)
Assay: hERG channel inhibition assay (patch-clamp, CHO-hERG cells)
Assay type: cell-based
Details: for IC50 / IC20: CHO-hERG cells, whole-cell patch-clamp; for IC20: human, CHO cells stably expressing hERG; for hERG IC20/TLR7 IC50 / hERG IC20/TLR8 IC50 / hERG IC20/TLR9 IC50: safety ratio
Procedure: The hERG K^+ channels were cloned in humans and stably expressed in a CHO (Chinese hamster ovary) cell line. CHOhERG cells were used for patch-clamp (voltage-clamp, whole-cell) experiments. Cells were stimulated by a voltage pattern to activate hERG channels and conduct IKhERG Currents (rapid delayed outward rectifier potassium current of the hERG channel). After the cells were stabilized for a few minutes, the amplitude and kinetics of IKhERG were recorded at a stimulation frequency of 0.1 Hz (6 bpm). Thereafter, the test compound was added to the preparation at increasing concentrations. For each concentration, an attempt was made to reach a steady-state effect, usually, this was achieved within 3-10 min at which time the next highest concentration was applied. The amplitude and kinetics of IKhERG are recorded in each concentration of the drug which were compared to the control values (taken as 100%). (references: Redfe W S, Carlsson L, Davis A S, Lynch W G, MacKenzie I, Palethorpe S, Siegl P K, Strang I, Sullivan A T, Wallis R, Camm A J, Hammond T G. 2003; Relationships between preclinical cardiac electrophysiology, clinical QT interval prolongation and torsade de pointes for a broad range of drugs: evidence for a provisional safety margin in drug development. Cardiovasc. Res. 58:32-45, Sanguinetti M C, Tristani-Firouzi M. 2006; hERG potassium channels and cardiac arrhythmia. Nature 440:463-469, Webster R, Leishman D, Walker D. 2002; Towards a drug concentration effect relationship for QT prolongation and torsades de pointes. Curr. Opin. Drug Discov. Devel. 5:116-26).

T1 sequence (Q12809 whole entry): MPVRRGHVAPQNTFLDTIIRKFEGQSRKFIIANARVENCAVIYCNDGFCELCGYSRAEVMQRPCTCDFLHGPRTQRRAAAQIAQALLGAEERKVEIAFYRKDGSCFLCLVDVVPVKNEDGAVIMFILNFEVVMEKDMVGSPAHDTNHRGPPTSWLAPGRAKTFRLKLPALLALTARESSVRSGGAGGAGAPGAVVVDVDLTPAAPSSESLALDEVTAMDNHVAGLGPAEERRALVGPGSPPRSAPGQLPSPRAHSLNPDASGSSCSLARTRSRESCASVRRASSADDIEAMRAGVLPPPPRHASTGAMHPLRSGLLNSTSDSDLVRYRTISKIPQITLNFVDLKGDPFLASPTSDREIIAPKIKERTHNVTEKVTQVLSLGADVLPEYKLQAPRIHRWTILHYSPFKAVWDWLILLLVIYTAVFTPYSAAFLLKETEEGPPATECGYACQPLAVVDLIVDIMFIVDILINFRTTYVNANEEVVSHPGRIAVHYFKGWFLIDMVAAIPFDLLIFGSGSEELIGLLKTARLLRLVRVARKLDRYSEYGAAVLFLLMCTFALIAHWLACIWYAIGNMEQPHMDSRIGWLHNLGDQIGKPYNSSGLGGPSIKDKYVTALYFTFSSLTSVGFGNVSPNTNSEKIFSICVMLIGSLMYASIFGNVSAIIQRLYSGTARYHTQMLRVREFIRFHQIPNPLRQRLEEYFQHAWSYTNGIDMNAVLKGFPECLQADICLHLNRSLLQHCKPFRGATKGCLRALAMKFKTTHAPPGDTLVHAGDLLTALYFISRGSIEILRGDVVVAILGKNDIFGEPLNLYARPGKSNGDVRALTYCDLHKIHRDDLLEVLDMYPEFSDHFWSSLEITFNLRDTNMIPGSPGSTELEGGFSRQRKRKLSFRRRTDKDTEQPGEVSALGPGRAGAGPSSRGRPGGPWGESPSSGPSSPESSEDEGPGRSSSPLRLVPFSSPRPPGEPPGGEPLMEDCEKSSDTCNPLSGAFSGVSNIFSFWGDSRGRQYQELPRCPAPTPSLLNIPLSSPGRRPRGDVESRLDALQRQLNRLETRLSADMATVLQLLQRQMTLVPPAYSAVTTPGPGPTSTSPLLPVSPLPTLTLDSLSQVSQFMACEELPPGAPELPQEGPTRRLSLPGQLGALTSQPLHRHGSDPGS

Question: `Cc1cc(N2CC[C@H](c3ccc(N4CC5(CNCCO5)C4)cn3)[C@@H](C)C2)c2cnn(C)c2n1` [Example 38, 2-[6-[(3R,4S)-1-(1,6-dimethylpyrazolo[3,4-b]pyridin-4-yl)-3-methyl-4-piperidyl]-3-pyridyl]-5-oxa-2,8-diazaspiro[3.5]nonane] was tested. Which IC50 did it give?
Answer: > 20 µM

Question: What about the IC20 of the same compound?
Answer: 5.2 µM

Question: What about the “hERG IC20/TLR7 IC50” value of the same compound?
Answer: 400.0

Question: What about the “hERG IC20/TLR8 IC50” value of the same compound?
Answer: 472.7

Question: And the “hERG IC20/TLR9 IC50” value?
Answer: 27.1

Question: What does the source list for `CO[C@@H]1CN(c2ccc([C@H]3CCN(c4cc(C)nc5c4cnn5C)C[C@@H]3C)nc2)C[C@H]1N` [Example 36, (3R,4R)-1-[6-[(3R,4S)-1-(1,6-dimethylpyrazolo[3,4-b]pyridin-4-yl)-3-methyl-4-piperidyl]-3-pyridyl]-4-methoxy-pyrrolidin-3-amine]?
Answer: IC50: > 20 µM; IC20: > 10 µM; hERG IC20/TLR7 IC50: >555.6; hERG IC20/TLR8 IC50: >476.2; hERG IC20/TLR9 IC50: >58.8

Question: `Cc1cc(N2CCC(c3cnc(N4CCNCC4)nc3C)CC2)c2cnn(C)c2n1` [Example 11, 1,6-dimethyl-4-[4-(4-methyl-2-piperazin-1-yl-pyrimidin-5-yl)-1-piperidyl]pyrazolo[3,4-b]pyridine] was tested. Which IC50 did it give?
Answer: > 20 µM

Question: What about the IC20 of the same compound?
Answer: 7.5 µM

Question: And the “hERG IC20/TLR7 IC50” value?
Answer: 202.7

Question: What about the “hERG IC20/TLR8 IC50” value of the same compound?
Answer: 178.6

Question: And the “hERG IC20/TLR9 IC50” value?
Answer: 72.1

Question: `COC[C@H]1CN(c2ccc([C@H]3CCN(c4cc(C)nc5c4cnn5C)C[C@@H]3C)nc2)CCN1` [Example 37, 4-[(3R,4S)-4-[5-[(3R)-3-(methoxymethyl)piperazin-1-yl]-2-pyridyl]-3-methyl-1-piperidyl]-1,6-dimethyl-pyrazolo[3,4-b]pyridine] was tested. Which IC50 did it give?
Answer: > 20 µM

Question: And the IC20?
Answer: > 10 µM

Question: What about the “hERG IC20/TLR7 IC50” value of the same compound?
Answer: >1111.1

Question: What about the “hERG IC20/TLR8 IC50” value of the same compound?
Answer: >769.2

Question: What about the “hERG IC20/TLR9 IC50” value of the same compound?
Answer: >30.1

Question: How did the IC50 turn out when `Cc1cc(N2CCC(c3ccc(N4CCNCC4)cc3)CC2)c2cnn(C)c2n1` [Example 1, 1,6-dimethyl-4-[4-(4-piperazin-1-ylphenyl)-1-piperidyl]pyrazolo[3,4-b]pyridine] was run?
Answer: > 10 µM

Question: And the IC20?
Answer: 4 µM

Question: And the “hERG IC20/TLR7 IC50” value?
Answer: 75.5

Question: And the “hERG IC20/TLR8 IC50” value?
Answer: 333.3

Question: What about the “hERG IC20/TLR9 IC50” value of the same compound?
Answer: 14.5
